We go through 16 compounds from patent US20040024024A1, “Aromatic sulfone hydroxamates and their use as protease inhibitors” (priority 2001, published 2004).

The test system of data set [1] is solid tumor cancers (colorectal, pancreatic, ovarian, and prostate). The conditions noted are these: cited from earlier work.
In a further data set the target is T1, Human recombinant MMP-1 (Homo sapiens, UniProt P03956).
T1 construct: made in house; host or cells: MMP-1-transfected HT-1080 cells (spent media)
T1 sequence (P03956 100-469): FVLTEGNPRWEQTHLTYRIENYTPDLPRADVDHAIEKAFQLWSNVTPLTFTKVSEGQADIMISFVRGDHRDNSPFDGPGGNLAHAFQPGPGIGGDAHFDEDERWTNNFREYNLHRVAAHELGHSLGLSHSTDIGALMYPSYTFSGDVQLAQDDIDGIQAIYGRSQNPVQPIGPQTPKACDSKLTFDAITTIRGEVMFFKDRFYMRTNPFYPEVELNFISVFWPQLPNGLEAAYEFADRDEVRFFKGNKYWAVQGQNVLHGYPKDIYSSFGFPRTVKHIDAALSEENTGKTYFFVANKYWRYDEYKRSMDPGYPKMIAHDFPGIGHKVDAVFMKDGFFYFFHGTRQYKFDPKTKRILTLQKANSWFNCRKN
As to the kind of experiment: In vitro MMP inhibition, IC50 determination (fluorogenic substrate I). The class given is biochemical. Summed up: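 Inhibitor dilutions were made in 100 mM Tris-HCl/100 mM NaCl/10 mM CaCl2 buffer, pH 7.5, and incubated at room temperature with activated proenzyme (from transfected HT-1080 media; APMA or trypsin) and 4 μM quenched methoxycoumarin peptide substrate. Loss of 415 nm fluorescence (328 nm excitation) against concentration gave IC50.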

The target in a further data set is T2, Human recombinant MMP-2 (Homo sapiens, UniProt P08253).
T2 construct: made in house; host or cells: MMP-2-transfected p2AHT2 cells
T2 sequence (P08253 110-660): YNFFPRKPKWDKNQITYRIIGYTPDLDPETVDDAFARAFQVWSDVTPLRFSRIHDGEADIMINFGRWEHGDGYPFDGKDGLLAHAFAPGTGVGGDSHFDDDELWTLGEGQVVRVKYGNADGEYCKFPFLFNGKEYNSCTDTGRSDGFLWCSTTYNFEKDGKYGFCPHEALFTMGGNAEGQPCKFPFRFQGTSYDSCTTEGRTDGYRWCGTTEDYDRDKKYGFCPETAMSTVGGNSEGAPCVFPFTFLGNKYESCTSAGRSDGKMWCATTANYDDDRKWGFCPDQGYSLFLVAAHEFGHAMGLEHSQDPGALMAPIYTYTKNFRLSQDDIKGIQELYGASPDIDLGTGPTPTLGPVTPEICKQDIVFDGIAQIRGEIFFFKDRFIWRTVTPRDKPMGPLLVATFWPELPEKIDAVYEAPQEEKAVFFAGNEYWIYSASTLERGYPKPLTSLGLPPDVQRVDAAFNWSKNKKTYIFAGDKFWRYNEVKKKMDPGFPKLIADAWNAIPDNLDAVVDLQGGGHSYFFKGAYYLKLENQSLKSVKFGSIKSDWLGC
The data set is described as above. The data set is classed as biochemical. Summed up:
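IC50 was derived from the concentration-dependent fall in fluorescence (ex 328, em 415 nm) on Gly-Leu cleavage of 4 μM MCA/Dpa-quenched substrate I. Assays ran at room temperature in pH 7.5 Tris/NaCl/CaCl2/Brij buffer with MMP-2 activated by trypsin or APMA; inhibitors were diluted from 1% DMSO stocks.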

Another data set concerns the target T3, Human recombinant MMP-9 (Homo sapiens, UniProt P14780).
T3 construct: made in house; host or cells: MMP-9-transfected HT1080 cells (spent media)
The data set is described as above. The data set is classed as biochemical. In outline: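 Reduction in fluorescence (328 nm excitation, 415 nm emission) from cleavage of 4 μM quenched peptide substrate I, measured at room temperature against inhibitor concentration, gave IC50. Enzyme: trypsin- or APMA-activated MMP-9 purified from transfected HT1080 medium; buffer 100 mM Tris, 100 mM NaCl, 10 mM CaCl2, pH 7.5.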

A further data set addresses T4, Human recombinant MMP-13 (Homo sapiens, UniProt P45452).
T4 construct: made in house; host or cells: baculovirus / insect cells
The description is as above. The class given is biochemical. Summed up: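 Fluorescence at 415 nm (excitation 328 nm) reports Gly-Leu cleavage of 4 μM quenched methoxycoumarin peptide substrate I. Human recombinant MMP-13, activated by trypsin or APMA, was incubated at room temperature with varied inhibitor concentrations in pH 7.5 Tris/NaCl/CaCl2 buffer; IC50 derived from reduced fluorescence.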

For another data set, the target named is T5, Human recombinant MMP-14 (Homo sapiens, UniProt P50281).
T5 construct: The catalytic domain enzyme was expressed in E. coli inclusion bodies, solubilized in urea; made in house
The description is as above. The class given is biochemical. In outline:
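IC50 came from reduced fluorescence (ex 328 nm, em 415 nm) as inhibitor concentration rose, with 4 μM substrate I cleaved at Gly-Leu. Room-temperature incubation in pH 7.5 Tris buffer with 10 mM CaCl2; the E. coli-expressed, refolded MMP-14 catalytic domain was activated with trypsin or APMA.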

Where [2] appears, read: substrate (I) 4 μM, room temperature, values not in parenthesis.
Where [3] appears, read: value outside parentheses (Ki in parenthesis).

Each structure is given as a SMILES string.

T3 sequence (P14780 107-707 limits assumed): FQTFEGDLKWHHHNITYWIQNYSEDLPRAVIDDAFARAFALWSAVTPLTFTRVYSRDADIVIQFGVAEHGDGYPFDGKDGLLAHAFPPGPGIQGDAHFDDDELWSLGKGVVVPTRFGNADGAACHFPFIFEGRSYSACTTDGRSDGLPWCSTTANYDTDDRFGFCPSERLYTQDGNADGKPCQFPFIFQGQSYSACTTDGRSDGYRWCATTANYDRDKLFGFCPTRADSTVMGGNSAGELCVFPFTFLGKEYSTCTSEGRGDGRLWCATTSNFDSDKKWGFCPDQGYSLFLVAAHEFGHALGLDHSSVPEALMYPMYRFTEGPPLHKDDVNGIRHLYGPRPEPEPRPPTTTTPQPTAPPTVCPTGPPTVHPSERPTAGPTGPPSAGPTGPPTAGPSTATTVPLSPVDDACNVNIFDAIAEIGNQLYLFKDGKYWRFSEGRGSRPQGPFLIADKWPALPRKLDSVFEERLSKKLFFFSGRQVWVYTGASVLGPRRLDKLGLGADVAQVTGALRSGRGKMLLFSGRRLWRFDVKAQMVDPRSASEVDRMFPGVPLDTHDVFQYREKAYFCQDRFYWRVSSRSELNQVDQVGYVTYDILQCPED

Consider `CNC(=O)[C@@H](NC(=O)[C@H](CC(C)C)[C@H](O)C(=O)NO)C(C)(C)C` [Marimastat], for which the “most common drug-related toxicity” value in data set [1] (clinical trials, patients) was “musculoskeletal pain and stiffness”. In addition, the “effect on cancer-specific antigens used as surrogate markers for biological activity” value in data set [1] (patients with advanced, rapidly progressive, treatment-refractory solid tumor cancers) is listed as “dose-related reduction in the rise of cancer-specific antigens”.

For the compound `O=C(CCCOc1ccc(S(=O)(=O)C2(C(=O)NO)CCOCC2)cc1)NNC(=O)c1ccc(Cl)cc1` [Example 272], the half-inhibitory concentration (IC50) at Human recombinant MMP-1 (value outside parenthesis) is 0.399 µM; on Human recombinant MMP-2 (value outside parenthesis), 4.2 nM; at Human recombinant MMP-9 (value outside parenthesis), 152 nM; at Human recombinant MMP-13 (value outside parenthesis), 2.8 nM; at Human recombinant MMP-14 (value outside parenthesis), over 10 µM.

As for `O=C(NO)C1(S(=O)(=O)c2ccc(OCCCSc3nc4ccccc4s3)cc2)CCN(CC2CC2)CC1` [Example 614], the half-maximal inhibitory concentration (IC50) on Human recombinant MMP-1 (value outside parentheses) was over 10 µM; on Human recombinant MMP-2 (value outside parentheses) it was 1.8 nM; at Human recombinant MMP-9 (value outside parentheses) it was 8.5 nM; on Human recombinant MMP-13 (value outside parentheses), 0.7 nM; on Human recombinant MMP-14 (value outside parentheses) it was 9.44 µM.

As for `COc1ccc(CC(=O)NCCOc2ccc(S(=O)(=O)C3(C(=O)NO)CCOCC3)cc2)cc1` [Example 616], the IC50 at Human recombinant MMP-1 (value outside parentheses) is 1.58 µM; on Human recombinant MMP-2 (value outside parentheses), 5.3 nM; at Human recombinant MMP-9 (value outside parentheses), 54.8 nM; at Human recombinant MMP-13 (value outside parentheses), 2 nM; on Human recombinant MMP-14 (value outside parentheses) it was 1.97 µM.

Take `O=C(OCCCCOc1ccc(S(=O)(=O)C2(C(=O)NO)CCOCC2)cc1)N1CCc2ccccc2C1` [Example 34]: the IC50 at Human recombinant MMP-1 (setting [2]) was 0.429 µM; at Human recombinant MMP-2 (setting [2]) it was 36.6 nM; on Human recombinant MMP-9 (setting [2]) it was over 10000 nM; on Human recombinant MMP-13 (setting [2]), 3 nM; at Human recombinant MMP-14 (setting [2]) it was over 10 µM.

As for `CCN1CCC(C(=O)NO)(S(=O)(=O)c2ccc(OCCCc3cccc(-c4ccc(F)cc4)c3)cc2)CC1` [Example 138], the half-inhibitory concentration (IC50) at Human recombinant MMP-1 (value outside parenthesis) is over 10 µM; at Human recombinant MMP-2 (value outside parenthesis) it was 247 nM; at Human recombinant MMP-9 (value outside parenthesis) it was 1900 nM; on Human recombinant MMP-13 (value outside parenthesis) it was 2.1 nM; on Human recombinant MMP-14 (value outside parenthesis), over 10 µM.

`CCCC(=O)C(C)CCOc1ccc(S(=O)(=O)C2(C(=O)NO)CCOCC2)cc1` (centres unmarked) [Example 295]: the IC50 at Human recombinant MMP-1 (setting [3]) is over 10 µM; on Human recombinant MMP-2 (setting [3]) it was 15.6 nM; on Human recombinant MMP-9 (setting [3]), 172 nM; on Human recombinant MMP-13 (setting [3]), 2.6 nM; at Human recombinant MMP-14 (setting [3]), over 10 µM.

`COc1ccc(C(=O)NCC(C)(C)COc2ccc(S(=O)(=O)C3(C(=O)NO)CCOCC3)cc2)cc1` [Example 392]: the half-inhibitory concentration (IC50) at Human recombinant MMP-1 (setting [3]) is over 10 µM; on Human recombinant MMP-2 (setting [3]) it was over 10000 nM; on Human recombinant MMP-9 (setting [3]), over 10000 nM; on Human recombinant MMP-13 (setting [3]), 40 nM; at Human recombinant MMP-14 (setting [3]), over 10 µM.

`O=C(NO)C1(S(=O)(=O)c2ccc(OCCCSc3nc4ccc(Cl)cc4o3)cc2)CCOCC1` [Example 408]: the IC50 is over 10 µM on Human recombinant MMP-1 (setting [3]); 90 nM at Human recombinant MMP-2 (setting [3]); 49 nM on Human recombinant MMP-9 (setting [3]); 2.5 nM at Human recombinant MMP-13 (setting [3]); 6.81 µM at Human recombinant MMP-14 (setting [3]).

`O=C(NCCCOc1ccc(S(=O)(=O)C2(C(=O)NO)CCN(C3CC3)CC2)cc1)c1ccc(OC(F)(F)F)cc1` [Example 208]: the half-maximal inhibitory concentration (IC50) at Human recombinant MMP-1 (value outside parenthesis) was over 10 µM; on Human recombinant MMP-2 (value outside parenthesis), 230 nM; at Human recombinant MMP-9 (value outside parenthesis), 6590 nM; on Human recombinant MMP-13 (value outside parenthesis) it was 0.6 nM; on Human recombinant MMP-14 (value outside parenthesis), over 10 µM.

On to `O=C(NO)C1(S(=O)(=O)c2ccc(OCCCOc3ccc(F)cc3F)cc2)CCOCC1` [Example 445], for which the IC50 at Human recombinant MMP-1 (setting [3]) was 3.32 µM; on Human recombinant MMP-2 (setting [3]), 2.2 nM; on Human recombinant MMP-9 (setting [3]), 44 nM; at Human recombinant MMP-13 (setting [3]), 0.5 nM; on Human recombinant MMP-14 (setting [3]), 0.546 µM.

For `O=C(NO)C1(S(=O)(=O)c2ccc(OCCOCc3cccc([N+](=O)[O-])c3)cc2)CCOCC1` [Example 662], the IC50 came to 2.31 µM on Human recombinant MMP-1 (value outside parentheses); 7.13 nM at Human recombinant MMP-2 (value outside parentheses); 44.3 nM on Human recombinant MMP-9 (value outside parentheses); 0.9 nM on Human recombinant MMP-13 (value outside parentheses); 1.67 µM at Human recombinant MMP-14 (value outside parentheses).

On to `COCCN1CCC(C(=O)NO)(S(=O)(=O)c2ccc(OCCCc3cccc(-c4ccccc4)c3)cc2)CC1` [Example 44], for which the IC50 on Human recombinant MMP-1 (setting [2]) was over 10 µM; at Human recombinant MMP-2 (setting [2]), 133 nM; at Human recombinant MMP-9 (setting [2]), 154 nM; on Human recombinant MMP-13 (setting [2]), 1.4 nM; on Human recombinant MMP-14 (setting [2]), 4.98 µM.

As for `CCOc1ccc2nc(SCCCOc3ccc(S(=O)(=O)C4(C(=O)NO)CCOCC4)cc3)sc2c1` [Example 287], the 50% inhibitory concentration (IC50) at Human recombinant MMP-1 (value outside parenthesis) is over 10 µM; at Human recombinant MMP-2 (value outside parenthesis), 3.6 nM; on Human recombinant MMP-9 (value outside parenthesis), 16.4 nM; on Human recombinant MMP-13 (value outside parenthesis) it was 0.8 nM; at Human recombinant MMP-14 (value outside parenthesis) it was over 10 µM.

In the case of `O=C(CCCCOc1ccc(S(=O)(=O)C2(C(=O)NO)CCOCC2)cc1)c1cccs1` [Example 324], the 50% inhibitory concentration (IC50) on Human recombinant MMP-1 (setting [3]) came out at 2.99 µM; at Human recombinant MMP-2 (setting [3]) it was 4.2 nM; on Human recombinant MMP-9 (setting [3]), 500 nM; at Human recombinant MMP-13 (setting [3]) it was 0.5 nM; at Human recombinant MMP-14 (setting [3]) it was 8 µM.

Take `CCc1ccc(N2CCN(CCCOc3ccc(S(=O)(=O)C4(C(=O)NO)CCOCC4)cc3)C2=O)cc1` [Example 191]: the IC50 at Human recombinant MMP-1 (value outside parenthesis) was 6.96 µM; at Human recombinant MMP-2 (value outside parenthesis), 341 nM; at Human recombinant MMP-9 (value outside parenthesis), 383 nM; at Human recombinant MMP-13 (value outside parenthesis) it was 9.5 nM; at Human recombinant MMP-14 (value outside parenthesis), over 10 µM.
